Columns and labels:
Assay type in all cases: cell-based
[1] = biological target: T1, STAT3 (Homo sapiens, UniProt P40763); test: HiBiT assay, STAT3 degradation in STAT3-HiBiT KI HeLa cells; conditions: 24 h, read-out: STAT3 Degradation (HeLa 24 h HiBit) DC50
T1 construct: This cell line is a clone created by using CRISPR-Cas9 to fuse HiBiT to the 3′ end of STAT3 in HeLa cells; host or cells: STAT3-HiBiT KI HeLa cell line (CRISPR-Cas9 knock-in clone)
Procedure, shortened: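 HeLa cells with CRISPR knock-in of HiBiT at the STAT3 C-terminus, 20000 cells/well, treated with serial compound dilutions for 24 h at 37 °C, 5% CO2. Remaining STAT3 read by Nano-Glo HiBiT lytic luminescence versus untreated cells; IC50 from four-parameter nonlinear fit of triplicate means.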

[2] = system: SUP-M2 cells; test: CellTiter-Glo 2.0 cell viability assay, SUP-M2; conditions: SUP-M2, 96 h, 4 days
Procedure, shortened: (§1)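 1000 cells per well exposed to serially diluted compounds for 4 days at 37 °C, 5% CO2. Viability measured by CellTiter-Glo 2.0 luminescence versus untreated cells; IC50 from four-parameter nonlinear fit of triplicate means.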

[3] = system: SU-DHL-1 cells; test: CellTiter-Glo 2.0 cell viability assay, SU-DHL-1; conditions: Homo sapiens, 96 h, 4 days
Procedure, shortened: as §1

T1 sequence (P40763 whole entry): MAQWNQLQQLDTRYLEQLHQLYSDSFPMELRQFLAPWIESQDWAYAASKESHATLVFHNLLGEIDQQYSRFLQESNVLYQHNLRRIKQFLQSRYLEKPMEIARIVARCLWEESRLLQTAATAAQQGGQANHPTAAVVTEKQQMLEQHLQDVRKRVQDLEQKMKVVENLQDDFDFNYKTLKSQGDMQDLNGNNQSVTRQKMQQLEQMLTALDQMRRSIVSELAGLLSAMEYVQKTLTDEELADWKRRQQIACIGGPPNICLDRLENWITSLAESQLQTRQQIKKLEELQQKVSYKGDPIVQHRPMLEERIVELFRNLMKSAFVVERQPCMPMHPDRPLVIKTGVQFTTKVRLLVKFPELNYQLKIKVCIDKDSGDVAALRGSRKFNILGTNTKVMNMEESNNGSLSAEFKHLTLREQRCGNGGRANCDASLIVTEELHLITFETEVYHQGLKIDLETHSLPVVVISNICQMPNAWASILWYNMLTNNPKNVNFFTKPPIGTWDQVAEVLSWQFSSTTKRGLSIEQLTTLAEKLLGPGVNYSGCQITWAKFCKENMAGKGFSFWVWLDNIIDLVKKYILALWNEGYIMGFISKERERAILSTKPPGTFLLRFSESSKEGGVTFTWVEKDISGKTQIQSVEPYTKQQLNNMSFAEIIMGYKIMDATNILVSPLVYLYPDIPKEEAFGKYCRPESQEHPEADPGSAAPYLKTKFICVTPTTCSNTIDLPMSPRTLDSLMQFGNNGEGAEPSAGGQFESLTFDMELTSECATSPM

Cc1ncsc1-c1ccc([C@H](C)NC(=O)[C@@H]2C[C@@H](O)CN2C(=O)[C@@H](n2cc(CCCCCCCC(=O)N3CC[C@H]4CC[C@@H](C(=O)N[C@@H](CCC(N)=O)C(=O)NC(c5ccccc5)c5ccccc5)N4C(=O)[C@@H](NC(=O)c4cc5cc(C(=O)P(=O)(O)O)ccc5[nH]4)C3)nn2)C(C)(C)C)cc1 [Compound 60, (2-(((5S,8S,10aR)-8-(((S)-5-amino-1-(benzhydrylamino)-1,5-dioxopentan-2-yl)carbamoyl)-3-(8-(1-((S)-1-((2S,4R)-4-hydroxy-2-(((S)-1-(4-(4-methylthiazol-5-yl)phenyl)ethyl)carbamoyl)pyrrolidin-1-yl)-3,3-dimethyl-1-oxobutan-2-yl)-1H-1,2,3-triazol-4-yl)octanoyl)-6-oxodecahydropyrrolo[1,2-a][1,5]diazocin-5-yl)carbamoyl)-1H-indole-5-carbonyl)phosphonic acid]
> 1000 nM: DC50 [1] | IC50 [2] | IC50 [3]

Cc1ncsc1-c1ccc([C@H](C)NC(=O)[C@@H]2C[C@@H](O)CN2C(=O)[C@@H](n2cc(CCCCCCCCC(=O)N3CC[C@H]4CC[C@@H](C(=O)N[C@@H](CCC(N)=O)C(=O)NC(c5ccccc5)c5ccccc5)N4C(=O)[C@@H](NC(=O)c4cc5cc(C(=O)P(=O)(O)O)ccc5[nH]4)C3)nn2)C(C)(C)C)cc1 [Compound 61, (2-(((5S,8S,10aR)-8-(((S)-5-amino-1-(benzhydrylamino)-1,5-dioxopentan-2-yl)carbamoyl)-3-(9-(1-((S)-1-((2S,4R)-4-hydroxy-2-(((S)-1-(4-(4-methylthiazol-5-yl)phenyl)ethyl)carbamoyl)pyrrolidin-1-yl)-3,3-dimethyl-1-oxobutan-2-yl)-1H-1,2,3-triazol-4-yl)nonanoyl)-6-oxodeca-hydropyrrolo[1,2-a][1,5]diazocin-5-yl)carbamoyl)-1H-indole-5-carbonyl)phosphonic acid]
> 1000 nM: DC50 [1] | IC50 [2] | IC50 [3]
